According to US9556183B2, “Substituted pyrazolylpyrazole derivative and use of same as herbicide” (KYOYU AGRI CO., LTD., priority 2013, dated 2017):

Legend:
Chenopodium album [1] = test: Farming soil treatment test; type: in vivo; conditions: soil surface spray prior to weed growth, 30 days
Method in brief: (§1)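 Preemergence soil treatment: field soil pots seeded and covered, then wettable-powder formulations diluted in water sprayed on soil surface at 10 L water per are before weed emergence. Growth inhibition (%) versus untreated pots rated on an 11-level scale after 30 days in greenhouse at average 30 °C.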

Digitaria ciliaris [2] = test: Farming soil treatment test; type: in vivo; conditions: soil surface spray prior to weed growth, 30 days
Method in brief: as §1

Amaranthus retroflexus [3] = test: Farming soil treatment test; type: in vivo; conditions: soil surface spray prior to weed growth, 30 days
Method in brief: as §1

Chenopodium album [4] = test: Weed foliar treatment test; type: in vivo; conditions: foliar spray, 3 weeks
Method in brief: (§2)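 Pot-grown weeds were raised in a 25 °C greenhouse and sprayed post-emergence with water-diluted wettable powder at 15 L water per are, at the 1.0-2.0 leaf stage of Digitaria ciliaris. Efficacy was rated 3 weeks later as growth inhibition versus untreated plants on an 11-level scale.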

Digitaria ciliaris [5] = test: Weed foliar treatment test; type: in vivo; conditions: foliar spray at 1.0 to 2.0 leaf stage of Digitaria ciliaris, 3 weeks
Method in brief: as §2

Amaranthus retroflexus [6] = test: Weed foliar treatment test; type: in vivo; conditions: foliar spray, 3 weeks
Method in brief: as §2

Monochoria vaginalis = test: Paddy herbicidal activity test; type: in vivo; conditions: irrigated paddy pot, 30 days
Method in brief: (§3)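 Flooded paddy-soil pots (3 cm water) sown with weeds; rice at 2.0 leaf stage transplanted when Echinochloa reached 3.5 leaf stage, then diluted wettable powder dropped into water at prescribed rate per are. After 30 days in greenhouse (mean 30° C), growth inhibition vs untreated (efficacy) or vs complete kill (phytotoxicity) scored on 11 levels.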

Echinochloa crus-galli = test: Paddy herbicidal activity test; type: in vivo; conditions: irrigated paddy pot, treated at 3.5 leaf stage of Echinochloa crus-galli, 30 days
Method in brief: as §3

Scirpus juncoides = test: Paddy herbicidal activity test; type: in vivo; conditions: irrigated paddy pot, 30 days
Method in brief: as §3

Rice plants = test: Paddy herbicidal activity test, phytotoxicity to transplanted rice; type: in vivo; conditions: rice transplanted at 2.0 leaf stage, 30 days
Method in brief: as §3

## CC(Nc1c(C#N)cnn1-c1nn2c(c1Cl)CCCC2)C1CC1 (stereo not drawn) [Compound 9, 1-(3-chloro-4,5,6,7-tetrahydropyrazolo[1,5-a]pyridin-2-yl)-5-(1-cyclopropylethylamino)pyrazole-4-carbonitrile]
Chenopodium album [1]; 5g a.i./10a
  herbicidal efficacy (growth inhibition rate level) Chenopodium album: 10 (10: 100%)
Chenopodium album [1]; 10g a.i./10a
  herbicidal efficacy (growth inhibition rate level) Chenopodium album: 10 (10: 100%)
Digitaria ciliaris [2]; 5g a.i./10a
  herbicidal efficacy (growth inhibition rate level) Digitaria ciliaris: 10 (10: 100%)
Digitaria ciliaris [2]; 10g a.i./10a
  herbicidal efficacy (growth inhibition rate level) Digitaria ciliaris: 10 (10: 100%)
Amaranthus retroflexus [3]; 5g a.i./10a
  herbicidal efficacy (growth inhibition rate level) Amaranthus retroflexus: 10 (10: 100%)
Amaranthus retroflexus [3]; 10g a.i./10a
  herbicidal efficacy (growth inhibition rate level) Amaranthus retroflexus: 10 (10: 100%)
Chenopodium album [4]; 5g a.i./10a
  herbicidal efficacy (growth inhibition rate level) Chenopodium album: 10 (10: 100%)
Chenopodium album [4]; 10g a.i./10a
  herbicidal efficacy (growth inhibition rate level) Chenopodium album: 10 (10: 100%)
Digitaria ciliaris [5]; 5g a.i./10a
  herbicidal efficacy (growth inhibition rate level) Digitaria ciliaris: 10 (10: 100%)
Digitaria ciliaris [5]; 10g a.i./10a
  herbicidal efficacy (growth inhibition rate level) Digitaria ciliaris: 10 (10: 100%)
Amaranthus retroflexus [6]; 5g a.i./10a
  herbicidal efficacy (growth inhibition rate level) Amaranthus retroflexus: 10 (10: 100%)
Amaranthus retroflexus [6]; 10g a.i./10a
  herbicidal efficacy (growth inhibition rate level) Amaranthus retroflexus: 10 (10: 100%)
Monochoria vaginalis; 1g a.i./10a
  herbicidal efficacy (growth inhibition rate level) Monochoria vaginalis: 8 (8: 80% to less than 90%)
Monochoria vaginalis; 5g a.i./10a
  herbicidal efficacy (growth inhibition rate level) Monochoria vaginalis: 9 (9: 90% to less than 100%)
Echinochloa crus-galli; 1g a.i./10a
  herbicidal efficacy (growth inhibition rate level) Echinochloa crus-galli: 9 (9: 90% to less than 100%)
Echinochloa crus-galli; 5g a.i./10a
  herbicidal efficacy (growth inhibition rate level) Echinochloa crus-galli: 9 (9: 90% to less than 100%)
Scirpus juncoides; 1g a.i./10a
  herbicidal efficacy (growth inhibition rate level) Scirpus juncoides: 8 (8: 80% to less than 90%)
Scirpus juncoides; 5g a.i./10a
  herbicidal efficacy (growth inhibition rate level) Scirpus juncoides: 8 (8: 80% to less than 90%)
other
  melting point: 104 to 108 °C
Rice plants; 1g a.i./10a
  phytotoxicity (growth inhibition rate level) Rice plants: 0 (0 (exponent): 0% to less than 10% (growth inhibition rate))
Rice plants; 5g a.i./10a
  phytotoxicity (growth inhibition rate level) Rice plants: 1 (1: 10% to less than 20%)
